Values quoted from earlier work, collected in patent US20070042062A1, “Novel anti-diabetic herbal formulation” (COUNCIL OF SCIENTIFIC AND INDUSTRIAL RESEARCH., priority 2004, published 2007).

Key:
[1] = tested on: carrageenin-induced acute oedema; conditions: mice
[2] = tested on: male volunteers; set-up: dose or concentration left out as unconfirmed; conditions: for 4 weeks
[3] = tested on: patients suffering from chronic antieri or ureitis (CAU); conditions: 375 mg three times a day for 12 weeks, oral; curcumin alone
[4] = tested on: monkey; conditions: in vivo

COc1cc(/C=C/C(=O)CC(=O)/C=C/c2ccc(O)c(OC)c2)ccc1O [Curcumin, curcumin]
oral ED50 against carrageenin-induced acute oedema [1]: 100.2 mg/kg | side effect in phase-I trials [2]: did not produce any side effect | clinical outcome in CAU patients [3]: all the patients who received curcumin alone improved | toxicity on single or repeated oral administration [4]: did not produce any toxicity
